Patent publication US6737383B1, “Herbicidal oxadiazolidines” (priority 1999, dated 2004)

Experiments:
winter wheat [1] = test: Test E winter wheat; assay type: in vivo, Triticum aestivum; conditions: Postemergence
Method in brief: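 Each compound, carried in a non-phytotoxic solvent blend including surfactant, was applied (postemergence: over the top of young plants at 1- to 4-leaf stage). Plants stayed in the greenhouse about 21 to 28 days before visual comparison with untreated controls.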

winter wheat [2] = test: Test E winter wheat; assay type: in vivo, Triticum aestivum; conditions: Preemergence
winter barley = test: Test E winter barley; assay type: in vivo, Hordeum vulgare; conditions: Preemergence
bedstraw = test: Test B pre/postemergence bedstraw; assay type: in vivo, Galium aparine
Method in brief: (§1)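 Response is a visual 0-to-10 score relative to untreated plants, where 0 means no effect and 10 means complete control, taken twelve to sixteen days after application. Treatments went onto soil at planting and onto foliage of 1- to 4-leaf plants, using a surfactant-containing non-phytotoxic solvent.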

dallisgrass = test: Test D dallisgrass; assay type: in vivo, Paspalum dilatatum; conditions: Preemergence, 0 to 100 scale
Method in brief: (§2)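 Visual injury ratings, 0 = no injury to 100 = complete control, taken 14 to 21 days after treatment. Test chemicals were in a surfactant-containing non-phytotoxic solvent; preemergence treatments went onto the sandy loam surface of seeded greenhouse pots within one day of sowing.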

surinam grass [3] = test: Test D surinam grass; assay type: in vivo, Brachiaria decumbens; conditions: Preemergence, 0 to 100 scale
Method in brief: as §2

blackgrass [4] = test: Test E blackgrass; assay type: in vivo, Alopecurus myosuroides; conditions: Preemergence
blackgrass [5] = test: Test B pre/postemergence blackgrass; assay type: in vivo, Alopecurus myosuroides
Method in brief: as §1

bamyardgrass = test: Test B flood test barnyardgrass; assay type: in vivo, Echinochloa crus-galli
Method in brief: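 Read-out is a visual response score from 0 (no effect) to 10 (complete control), assigned by comparison with untreated controls. Treatment was applied at the 2-leaf stage, and plants stayed in the greenhouse for twelve to sixteen days before scoring.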

goosegrass = test: Test D goosegrass; assay type: in vivo, Eleusine indica; conditions: Preemergence, 0 to 100 scale
Method in brief: as §2

green foxtail [6] = test: Test E green foxtail; assay type: in vivo, Setaria viridis; conditions: Preemergence
wild oat = test: Test E wild oat; assay type: in vivo, Avena fatua; conditions: Preemergence
large crabgrass = test: Test D large crabgrass; assay type: in vivo, Digitaria sanguinalis; conditions: Preemergence, 0 to 100 scale
Method in brief: as §2

surinam grass [7] = test: Test B pre/postemergence surinam grass; assay type: in vivo, Brachiaria decumbens
Method in brief: as §1

Green foxtail [8] = test: Test D green foxtail; assay type: in vivo
Method in brief: as §2

Italian ryegrass = test: Test E Italian ryegrass; assay type: in vivo, Lolium multiflorum; conditions: Preemergence
common ragweed = test: Test D common ragweed; assay type: in vivo, Ambrosia elatior; conditions: Preemergence, 0 to 100 scale
Method in brief: as §2

[9] = Rate 62 g/ha, 0 to 100 scale, 0 no effect, 100 complete control
[10] = Rate 125 g/ha, 0 to 100 scale (0 no effect, 100 complete control)
[11] = Rate 500 g/ha, 0 to 100 scale where 0 is no effect and 100 is complete control
[12] = Postemergence, Rate 62 g/ha, scale 0 to 10, 0 is no effect, 10 is complete control
[13] = Postemergence, Rate 250 g/ha, scale 0 to 10, 0 no effect, 10 complete control
[14] = Preemergence, Rate 62 g/ha, scale 0 to 10 (0 no effect, 10 complete control)
[15] = Preemergence, Rate 125 g/ha, scale 0 to 10 (0 no effect, 10 complete control)
[16] = Preemergence, Rate 250 g/ha, scale of 0 to 10 where 0 is no effect and 10 is complete control
[17] = Preemergence, Rate 500 g/ha, scale 0 to 10 (0 no effect, 10 complete control)
[18] = Rate 125 g/ha, Postemergence, scale 0 to 10, 0 no effect, 10 complete control
[19] = Rate 16 g/ha, 0 no injury, 100 complete control
[20] = Rate 32 g/ha, 0 no injury, 100 complete control
[21] = Rate 64 g/ha, 0 no injury, 100 complete control
[22] = Rate 125 g/ha, 0 no injury, 100 complete control
[23] = Rate 64 g/ha, Preemergence; 0 to 100 scale, 0 no injury, 100 complete control
[24] = Rate 125 g/ha, Preemergence; 0 to 100 scale, 0 no injury, 100 complete control

`CC(C)N(C(=O)n1oc(=O)n(C(C)C)c1=O)c1ccc(F)cc1F` [Compound 109] was tested, and the “Plant response rating, Wheat (winter)” value (winter wheat [1]; Rate 62 g/ha, 0 to 100 scale) was 0, the “Plant response rating, Wheat (winter)” value (winter wheat [1]; Rate 125 g/ha, 0 to 100 scale) was 55 and the “Plant response rating, Wheat (winter)” value (winter wheat [1]; Rate 250 g/ha, 0 to 100 scale (0 no effect, 100 complete control)) was 75. For the same compound, the “Plant response rating, Wheat (winter)” value (winter wheat [1]; Rate 500 g/ha, 0 to 100 scale, 0 no effect, 100 complete control) was 0, the “Plant response rating, Wheat (winter)” value (winter wheat [2]; [9]) was 20 and the “Plant response rating, Wheat (winter)” value (winter wheat [2]; [10]) was 30. The “Plant response rating, Wheat (winter)” value (winter wheat [2]; Rate 250 g/ha, 0 to 100 scale) was 55, the “Plant response rating, Wheat (winter)” value (winter wheat [2]; [11]) was 10 and the “Plant response rating, Barley (winter)” value (winter barley; [9]) was 10. The “Plant response rating, Barley (winter)” value (winter barley; [10]) was 10, the “Plant response rating, Barley (winter)” value (winter barley; Rate 250 g/ha, 0 to 100 scale) was 20 and the “Plant response rating, Barley (winter)” value (winter barley; [11]) was 5. The “Bedstraw plant response rating” value (bedstraw; [12]) was 6, the “Bedstraw plant response rating” value (bedstraw; [13]) was 9 and the “Bedstraw plant response rating” value (bedstraw; [14]) was 8. For the same compound, the “Plant response rating, Bedstraw” value (bedstraw; [15]) was 10, the “Plant response rating, Bedstraw” value (bedstraw; [16]) was 10 and the “Bedstraw plant response rating” value (bedstraw; [17]) was 10. For the same compound, the “Bedstraw plant response rating” value (bedstraw; [18]) was 8, the “Plant response rating, Dallisgrass” value (dallisgrass; [19]) was 40 and the “Plant response rating, Dallisgrass” value (dallisgrass; [20]) was 98. For the same compound, the “Plant response rating, Dallisgrass” value (dallisgrass; [21]) was 100, the “Plant response rating, Dallisgrass” value (dallisgrass; [22]) was 100 and the “Plant response rating, Dallisgrass” value (dallisgrass; Rate 250 g/ha) was 100. The “Plant response rating, Dallisgrass” value (dallisgrass; Rate 500 g/ha) was 100, the “Plant response rating Surinam grass” value (surinam grass [3]; [19]) was 0 and the “Plant response rating Surinam grass” value (surinam grass [3]; [20]) was 30. For the same compound, the “Surinam grass plant response rating” value (surinam grass [3]; [21]) was 85, the “Surinam grass plant response rating” value (surinam grass [3]; [22]) was 98 and the “Plant response rating Surinam grass” value (surinam grass [3]; Rate 250 g/ha) was 100. The “Plant response rating Surinam grass” value (surinam grass [3]; Rate 500 g/ha) was 100, the “Plant response rating, Blackgrass” value (blackgrass [4]; [9]) was 30 and the “Plant response rating, Blackgrass” value (blackgrass [4]; [10]) was 65. The “Plant response rating, Blackgrass” value (blackgrass [4]; Rate 250 g/ha, 0 to 100 scale) was 65, the “Plant response rating, Blackgrass” value (blackgrass [4]; [11]) was 90 and the “Blackgrass plant response rating” value (blackgrass [5]; Postemergence, Rate 125 g/ha, scale of 0 to 10 where 0 is no effect and 10 is complete control) was 8. The “Blackgrass plant response rating” value (blackgrass [5]; [13]) was 8, the “Blackgrass plant response rating” value (blackgrass [5]; [14]) was 8 and the “Plant response rating, Blackgrass” value (blackgrass [5]; [15]) was 8. For the same compound, the “Plant response rating, Blackgrass” value (blackgrass [5]; [16]) was 10, the “Blackgrass plant response rating” value (blackgrass [5]; [17]) was 10 and the “Blackgrass plant response rating” value (blackgrass [5]; Rate 62 g/ha, Postemergence, scale of 0 to 10 where 0 is no effect and 10 is complete control) was 7. For the same compound, the “Blackgrass plant response rating” value (blackgrass [5]; Rate 500 g/ha, Postemergence, scale 0 to 10, 0 no effect, 10 complete control) was 8, the “Barnyardgrass plant response rating” value (bamyardgrass; [12]) was 0 and the “Barnyardgrass plant response rating” value (bamyardgrass; Rate 125 g/ha, Postemergence section (flood test species), scale 0 to 10, 0 no effect, 10 complete control) was 0. The “Barnyardgrass plant response rating” value (bamyardgrass; Rate 250 g/ha, headed Pre-emergence (flood test species), scale 0 to 10 (0 no effect, 10 complete control)) was 0, the “Plant response rating, Barnyardgrass” value (bamyardgrass; Rate 500 g/ha, headed Pre-emergence (flood test species), scale 0 to 10 (0 no effect, 10 complete control)) was 0 and the “Barnyardgrass plant response rating” value (bamyardgrass; Rate 500 g/ha, listed under Postemergence (flood test species), scale 0 to 10, 0 no effect, 10 complete control) was 0. The “Barnyardgrass plant response rating” value (bamyardgrass; Rate 1000 g/ha, Pre-emergence (as headed), scale 0 to 10) was 8, the “Barnyardgrass plant response rating” value (bamyardgrass; Rate 2000 g/ha, Pre-emergence (as headed), scale 0 to 10, 0 no effect, 10 complete control) was 9 and the “Barnyardgrass plant response rating” value (bamyardgrass; flood test, listed under Postemergence, Rate 250 g/ha, scale 0 to 10, 0 no effect, 10 complete control) was 0. The “Plant response rating, Goosegrass” value (goosegrass; [19]) was 85, the “Plant response rating, Goosegrass” value (goosegrass; [20]) was 98 and the “Plant response rating, Goosegrass” value (goosegrass; [21]) was 100. For the same compound, the “Plant response rating, Goosegrass” value (goosegrass; [22]) was 100, the “Plant response rating, Goosegrass” value (goosegrass; Rate 250 g/ha) was 100 and the “Plant response rating, Goosegrass” value (goosegrass; Rate 500 g/ha) was 100. The “Plant response rating, Green foxtail” value (green foxtail [6]; [9]) was 50, the “Plant response rating, Green foxtail” value (green foxtail [6]; [10]) was 85 and the “Plant response rating, Green foxtail” value (green foxtail [6]; Rate 250 g/ha, 0 to 100 scale) was 100. For the same compound, the “Plant response rating, Green foxtail” value (green foxtail [6]; [11]) was 85, the “Plant response rating, Wild oat” value (wild oat; [9]) was 20 and the “Plant response rating, Wild oat” value (wild oat; [10]) was 30. For the same compound, the “Plant response rating, Wild oat” value (wild oat; [11]) was 80, the “Plant response rating Large crabgrass” value (large crabgrass; [19]) was 85 and the “Plant response rating Large crabgrass” value (large crabgrass; [20]) was 100. The “Plant response rating Large crabgrass” value (large crabgrass; [21]) was 100, the “Plant response rating Large crabgrass” value (large crabgrass; [22]) was 100 and the “Plant response rating Large crabgrass” value (large crabgrass; Rate 250 g/ha) was 100. For the same compound, the “Plant response rating Large crabgrass” value (large crabgrass; Rate 500 g/ha) was 100, the “B. signalgrass plant response rating” value (surinam grass [7]; [12]) was 7 and the “B. signalgrass plant response rating” value (surinam grass [7]; [13]) was 8. For the same compound, the “B. signalgrass plant response rating” value (surinam grass [7]; [14]) was 9, the “Plant response rating, B. signalgrass” value (surinam grass [7]; [15]) was 9 and the “Plant response rating, B. signalgrass” value (surinam grass [7]; [16]) was 10. The “B. signalgrass plant response rating” value (surinam grass [7]; [17]) was 10, the “B. signalgrass plant response rating” value (surinam grass [7]; [18]) was 7 and the “B. signalgrass plant response rating” value (surinam grass [7]; Rate 500 g/ha, Postemergence, scale of 0 to 10 where 0 is no effect and 10 is complete control) was 8. The “Plant response rating, Green foxtail” value (Green foxtail [8]; Preemergence; Rate 16 g/ha; 0 to 100 scale, 0 no injury, 100 complete control) was 98, the “Plant response rating, Green foxtail” value (Green foxtail [8]; Preemergence; Rate 32 g/ha; 0 to 100 scale, 0 no injury, 100 complete control) was 100 and the “Plant response rating, Green foxtail” value (Green foxtail [8]; Rate 16 g/ha; Preemergence; 0 to 100 scale, 0 no injury, 100 complete control) was 98. For the same compound, the “Plant response rating, Green foxtail” value (Green foxtail [8]; Rate 32 g/ha; Preemergence; 0 to 100 scale, 0 no injury, 100 complete control) was 0, the “Green foxtail plant response rating” value (Green foxtail [8]; [23]) was 100 and the “Plant response rating, Green foxtail” value (Green foxtail [8]; [23]) was 100. For the same compound, the “Green foxtail plant response rating” value (Green foxtail [8]; [24]) was 100, the “Plant response rating, Green foxtail” value (Green foxtail [8]; [24]) was 100 and the “Plant response rating, Green foxtail” value (Green foxtail [8]; Rate 250 g/ha; Preemergence; 0 to 100 scale) was 100. The “Plant response rating, Green foxtail” value (Green foxtail [8]; Rate 500 g/ha, Preemergence; 0 to 100 scale) was 100, the “Plant response rating, I. Ryegrass” value (Italian ryegrass; [9]) was 20 and the “Plant response rating, I. Ryegrass” value (Italian ryegrass; [10]) was 100. For the same compound, the “Plant response rating, I. Ryegrass” value (Italian ryegrass; Rate 250 g/ha, 0 to 100 scale) was 100, the “Plant response rating, I. Ryegrass” value (Italian ryegrass; [11]) was 70 and the “Plant response rating, C. ragweed” value (common ragweed; [19]) was 0. For the same compound, the “Plant response rating, C. ragweed” value (common ragweed; [20]) was 0, the “Plant response rating, C. ragweed” value (common ragweed; [21]) was 10 and the “Plant response rating, C. ragweed” value (common ragweed; [22]) was 10. For the same compound, the “Plant response rating, C. ragweed” value (common ragweed; Rate 250 g/ha) was 10 and the “Plant response rating, C. ragweed” value (common ragweed; Rate 500 g/ha) was 55.
